| Compound | melting point [°C] |
| --- | --- |
| NC(=O)N1CC(O)CC1C(=O)O (stereo unspecified) | 166 to 168 |
| O=S(=O)(Cl)c1ccc2c(c1)COC2 | 98 to 100 |
| Cc1nc(Cl)sc1C(=O)O | 149 to 151 |
| c1ccc(-c2c[nH]c(C3CCCNC3)n2)cc1 (stereo unspecified) | 93 to 95 |
| CC(=O)NC12CC3CC(C1)CC(C(=O)O)(C3)C2 | 258 to 260 |
| CN(C)c1c(F)cc(C(=N)N)cc1F | 95 to 97 |
| O=C(O)CCn1nnnc1S | 156 to 158 |
| CN(C)S(=O)(=O)c1ccc(N)c(N)c1 | 193 to 195 |
| CC(C)(C)C(=O)C=Cc1ccc(Br)s1 | 44 to 46 |
| Cc1cc(C=O)c(C)[nH]1 | 139 to 141 |
| Cc1ncc(CO)c(C)n1 | 52 to 54 |
| CC(C)C(Br)C(=O)NC1CCCCCC1 (stereo unspecified) | 119 to 121 |
| Cc1c(N)cc(C#N)cc1F | 135 to 137 |
| O=C(O)C(F)(F)c1c[nH]c(=O)[nH]c1=O | 188 to 190 |
| Clc1ccc2c(n1)CCC2 | 69 to 71 |
| CCN(CC)C(=O)CCC(=O)O | 74 to 76 |
| O=C1NC2(CCCC2)C(=O)N1CCBr | 97 to 99 |
| O=CNc1ccc2c(c1)OCO2 | 96 to 98 |
| CC(=O)c1cnc2ccnn2c1C | 80 to 82 |
| O=S(=O)(NC1CCCNC1)c1ccccc1 (stereo unspecified) | 133 to 135 |
| Cc1ccccc1CC(N)=NO | 121 to 123 |
| CC(C)c1c(C(=O)O)cnn1-c1ccc(C(F)(F)F)cn1 | 168 to 170 |
| CCCC=C(C#N)C(=O)O | 96 to 98 |
| CCOC(=O)/C(C#N)=C\Nc1ccc2c(c1)OCCCO2 | 124 to 126 |

| Compound | melting point [°C] |
| --- | --- |
| CC(C)(C)n1ccnc1S | 192 to 194 |
| CC(C)c1c(C(=O)O)cnc2ncnn12 | 207 to 209 |
| NCc1noc(-c2ccco2)n1 | 143 to 145 |
| CC(C)(C)OC(=O)N1CCC(N2CCCC2C(=O)O)CC1 (stereo unspecified) | 169 to 171 |
| Cc1noc(C)c1S(N)(=O)=O | 151 to 152 |
| O=C(O)C=Cc1cc(Br)c2c(c1)OCCO2 | 267 to 269 |
| Cc1c(C=O)c2ccccn2c1C#N | 170 to 172 |
| Cc1cc(C)c2cc(C(=O)O)sc2n1 | 198 to 200 |
| O=[N+]([O-])c1ccc(S(=O)(=O)C(F)(F)F)cc1 | 81 to 83 |
| O=C(O)C(=O)C=Cc1cccs1 | 114 to 116 |
| Cc1csc(NC(=O)CSCC(N)C(=O)O)n1 (stereo unspecified) | 169 to 171 |
| NC(=O)c1ccc(=O)[nH]n1 | 326 to 328 |
| Cc1cc(C(C)(C)C)cc(C)c1CC#N | 84 to 86 |
| c1cc2n(n1)CCCN2 | 99 to 101 |
| O=C(O)c1cccn2cc(CN3CCCC3)nc12 | 264 to 266 |
| S=C1NCCO1 | 95 to 97 |
| CC1CC(C(=O)O)CC(=O)N1 (stereo unspecified) | 159 to 161 |
| CCOc1cc2c(cc1/C=C/C(=O)O)OC(C)C2 (stereo unspecified) | 169 to 171 |
| CCC(CC)c1nnc(N)s1 | 158 to 160 |
| N#Cc1ccc(N2CCC(N)CC2)cc1 | 84 to 86 |
| CC(C)c1ccc(-n2nnnc2S)cc1 | 100 to 102 |
| Cc1nn(CCO)c(C)c1C=O | 67 to 69 |
| O=C(O)C1CCS(=O)(=O)C1 (stereo unspecified) | 135 to 137 |
| COc1ccc(/C=C/C(=O)O)cc1S(=O)(=O)N(C)C | 229 to 231 |

| Compound | melting point [°C] |
| --- | --- |
| CCCCn1c2c(c(=O)n(C)c1=O)C(CC(=O)O)C(=O)N2 (stereo unspecified) | 229 to 231 |
| Nc1nnc(-c2ccccc2)o1 | 243 to 245 |
| Nc1cc(Br)ccc1[N+](=O)[O-] | 143 to 145 |
| COc1cc(F)cc(F)c1S(=O)(=O)Cl | 75 to 77 |
| OC1CCCc2c[nH]nc21 (stereo unspecified) | 107 to 109 |
| O=C1NC(=O)C2CN(Cc3ccccc3)CC12 (stereo unspecified) | 91 to 93 |
| Nc1ccnc2ncnn12 | 264 to 266 |
| ClCc1cc(Cl)c2c(c1)OCCO2 | 59 to 61 |
| CC(Cl)C(=O)c1ccc(Br)cc1 (stereo unspecified) | 54 to 56 |
| CCS(=O)(=O)c1cccc(F)c1N | 91 to 93 |
| COC(=O)c1c[nH][nH]c1=O | 209 to 211 |
| COc1ccc(S(=O)(=O)NC2CCOCC2)cc1N | 164 to 166 |
| Nc1nc(N)nc(CO)n1 | 269 to 271 |
| Fc1ccc(C2CNCCO2)cc1 (stereo unspecified) | 56 to 58 |
| Cc1nccn1-c1ncccc1N | 166 to 168 |
| CC(=O)Nc1cccc(CCl)c1 | 83 to 85 |
| N#Cc1ccc(N2CCNC(=O)C2)cc1 | 224 to 226 |
| COc1ccc(C)nc1N | 87 to 89 |
| Cc1n[nH]c(=O)c2noc(C)c12 | 213 to 215 |
| CC(C)(C)c1nonc1N | 90 to 92 |
| CN(C)S(=O)(=O)c1ccc(Cl)nc1 | 117 to 119 |
| COc1ccc(N2C(=O)C=CC2=O)c(OC)c1 | 125 to 127 |
| O=C(O)c1cc(S(=O)(=O)N2CCCCC2)ccc1N1CCOCC1 | 173 to 175 |

The next lines start with the values.

| melting point [°C] | Compound |
| --- | --- |
| 297 to 299 | Cc1nc(-c2ccc(C)c(NC(=O)CCl)c2)n[nH]1 |
| 281 to 283 | O=C(O)c1ccc(N2C(=O)CSC2=S)cc1 |
| 190 to 192 | O=C(O)C1CCN(C(=O)c2cccc3ccccc23)CC1 |
| 179 to 181 | O=C(NCc1ccncc1)c1ccc(O)c(Cl)c1 |
| 194 to 196 | O=C(O)C(c1ccccc1)N1C(=O)CCC1=O (stereo unspecified) |
| 157 to 159 | Cn1ccnc1SCc1cccc(C(=O)O)c1 |
| 212 to 214 | O=c1c([N+](=O)[O-])c(Cl)nc2ccccn12 |
| 202 to 204 | O=C(O)c1nn(-c2ccccc2F)cc1O |
| 190 to 192 | Cc1ccc(Cl)cc1NC(=O)CC#N |
| 30 to 34 | CNCc1nc2ccccc2s1 |
| 43 to 45 | CCc1ccc(N2CCC(=O)CC2)cc1 |
| 140 to 142 | CC(=O)c1ccc(SCC(=O)O)c(F)c1 |
| 149 to 151 | O=C(Nc1cccc(Br)c1)c1cccc(S(=O)(=O)N2CCCCCC2)c1 |
| 115 to 117 | Cc1ccccc1NC(=O)C1CCc2ccccc2N1 (stereo unspecified) |
| 95 to 97 | CC(Oc1cccc(CO)c1)C(=O)O (stereo unspecified) |
| 61 to 63 | OCc1ccc(N2CCCC2)cc1 |
| 185 to 187 | CN(C)c1cc2ccccc2c(=O)[nH]1 |
| 151 to 153 | Nc1nc2cc(Cc3ccccc3)ccc2o1 |
| 139 to 141 | CCC(Nc1ccccc1)C(=O)O (stereo unspecified) |
| 145 to 147 | Cc1ccc(NC(=O)C=NO)cc1 |
| 115 to 117 | NC(=O)c1ccc(CCl)c([N+](=O)[O-])c1 |
| 124 to 126 | CC(=O)c1cnn(-c2ccccc2)c1 |
| 210 to 212 | O=C(O)C(NC1CC1)c1ccc(O)cc1 (stereo unspecified) |
| 204 to 206 | CN1C(=O)CCC(C(=O)O)C1c1ccccc1 (stereo unspecified) |
| 104 to 108 | O=C(O)CCNC(=O)OCc1ccccc1 |

| melting point [°C] | Compound |
| --- | --- |
| 303 to 305 | Sc1nnc(-c2ccncc2)n1C1CC1 |
| 179 to 181 | O=C(O)c1nn(-c2ccccc2)c2c1CCC2 |
| 120 to 122 | O=C(O)Cn1ncc(=O)c2ccccc21 |
| 133 to 135 | CC(C)NC(=O)Nc1ccc(CN)cc1 |
| 187 to 189 | O=C(CCl)N1CCN(S(=O)(=O)c2ccc([N+](=O)[O-])cc2)CC1 |
| 104 to 106 | CS(=O)(=O)c1cccc(NC(=O)CCl)c1 |
| 256 to 258 | Cc1nc(-c2ccncc2)nc(O)c1C |
| 64 to 66 | FC(F)Oc1cccc2cccnc12 |
| 190 to 192 | CC1(c2cccc(-n3cnnn3)c2)NC(=O)NC1=O (stereo unspecified) |
| 198 to 200 | O=C(O)c1cnoc1-c1cccs1 |
| 132 to 134 | N#Cc1ccc(-c2nc(CCl)co2)cc1 |
| 276 to 278 | O=C(O)c1ccc2c(=O)n3c(nc2c1)CCCCC3 |
| 191 to 193 | NNC(=O)C(=O)NCc1ccc(Cl)cc1 |
| 199 to 201 | Cc1cc2ccccc2c(=O)[nH]1 |
| 128 to 132 | NC(=O)NCc1cccs1 |
| 118 to 120 | Nc1cc(-c2ccccc2F)no1 |
| 140 to 142 | Cc1ccc(CNC(=O)c2ccccc2N)cc1 |
| 55 to 59 | CC(=O)c1ccc(OCC(=O)N2CCOCC2)cc1 |
| 113 to 115 | O=C(c1cnoc1)c1ccccc1O |
| 178 to 180 | Cc1cc(C(=O)O)sc1-c1cccc(Cl)c1 |
| 203 to 205 | Cc1cc(C(=O)O)ccc1NS(=O)(=O)C(F)(F)F |
| 170 to 172 | O=C(O)COc1ccc2c3c(c(=O)oc2c1)CCC3 |
| 168 to 170 | NS(=O)(=O)c1cccc(N2CC(C(=O)O)CC2=O)c1 (stereo unspecified) |
| 224 to 226 | COc1cc(C(=O)O)ccc1OCc1ccc(Br)cc1 |
| 194 to 196 | CCOC=C1C(=O)N(c2cccc(C(F)(F)F)c2)C(=O)c2ccccc21 |

| melting point [°C] | Compound |
| --- | --- |
| 105 to 107 | Cc1ccccc1CNC(=O)CCl |
| 189 to 191 | NNc1nc(-c2ccncc2)no1 |
| 106 to 108 | O=C(O)CCCSc1ccc(Cl)cc1 |
| 242 to 244 | Cc1ccc(NC(=O)c2cc(Cl)ccc2Cl)c(C(=O)O)c1 |
| 169 to 171 | Nc1ccc(Cl)cc1C(=O)Nc1ccncc1 |
| 188 to 190 | O=c1cc(O)nc(S)n1-c1ccc(Cl)cc1 |
| 189 to 191 | NS(=O)(=O)c1ccc(C(=O)O)c(F)c1 |
| 144 to 148 | O=Cc1cn(-c2ccccc2)nc1-c1ccccc1 |
| 123 to 125 | CC1CCCN1C(=O)c1cc2ccccc2cc1N (stereo unspecified) |
| 86 to 88 | Nc1ccnn1Cc1cccnc1 |
| 125 to 128 | Cc1ccc(-c2nc(S)n[nH]2)cc1 |
| 171 to 173 | CC(=O)NCc1ccc(C(=O)O)o1 |
| 159 to 161 | O=C(O)c1ccc(I)cc1Cl |
| 68 to 70 | CCOC(=O)C(NC(=O)c1ccc(Cl)c(Cl)c1)C(C)O (stereo unspecified) |
| 198 to 200 | CS(=O)(=O)Nc1ccc(C(=O)O)cc1 |
| 293 to 295 | O=C(O)c1cccc2c1C(=O)c1ccccc1C2=O |
| 161 to 163 | O=C(O)c1ccc(Sc2ccc(Cl)cc2)o1 |
| 228 to 230 | NC(=O)c1cccc2ncccc12 |
| 176 to 178 | CC(C)N(C)S(=O)(=O)c1ccc(C(=O)O)cc1 |
| 166 to 168 | COc1ccc(CC(=O)O)cc1S(=O)(=O)Cl |
| 217 to 219 | NC(=O)c1cnc(N)c(Cl)c1 |
| 131 to 133 | COc1ccccc1C1(C(=O)O)CC1 |
| 218 to 220 | O=Cc1ccc(C(=O)O)cc1Cl |
| 200 to 202 | O=C(O)c1ncoc1-c1cccs1 |
| 91 to 93 | Fc1ccc(-c2csc(Nc3ccccc3)n2)cc1 |
